# Measurements as given in patent US9271960B2, “Tetrahydrocarbazoles as active agents for inhibiting VEGF production by translational control” (PTC Therapeutics, Inc., priority 2004, dated 2016).
# Test system: VEGF
# Test: Hypoxia-inducible endogenous VEGF expression ELISA in HeLa cells
# Assay type: cell-based
# Details: Homo sapiens, HeLa, compounds 191-239, hypoxic conditions, VEGF protein by ELISA, read-out: ELISA Activity EC50
# Outline: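 HeLa cells held 24–48 h in hypoxia (1% O2) with a concentration series of compound; VEGF secreted into media quantified by ELISA against a standard curve. Parallel Cell Titer Glo viability under identical conditions gives CC50; EC50 from percent-inhibition curves.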
row,EC50 [nM],Structure (SMILES)
1,40 to 200,OC(COc1ccc(C2CCCCc3c2[nH]c2ccc(Br)cc32)cc1)CN1CCOCC1 (centres unmarked) [Compound 225]
2,40 to 200,OC(COc1ccc(C2CCCCc3c2[nH]c2ccc(Br)cc32)cc1)Cn1cncn1 (centres unmarked) [Compound 226]
3,< 10,OC(COc1ccc(C2CCCc3c2[nH]c2ccc(Br)cc32)cc1)Cn1nccn1 (centres unmarked) [Compound 227]
4,10 to 40,OC(COc1ccc(C2CCCCc3c2[nH]c2ccc(Cl)cc32)cc1)CN1CCOCC1 (centres unmarked) [Compound 228]
5,10 to 40,OC(COc1ccc(C2CCCCc3c2[nH]c2ccc(Cl)cc32)cc1)Cn1ccnn1 (centres unmarked) [Compound 232]
6,< 10,OC(COc1ccc(C2CCCCc3c2[nH]c2ccc(Cl)cc32)cc1)CN1CCSCC1 (centres unmarked) [Compound 233]
7,10 to 40,OC(COc1ccc(C2CCCCc3c2[nH]c2ccc(Cl)cc32)cc1)Cn1cncn1 (centres unmarked) [Compound 235]

# Continued, compound first:
row,Structure (SMILES),EC50 [nM]
1,OC(COc1ccc(C2CCCc3c2[nH]c2ccc(Cl)cc32)cc1)Cn1ccnc1 (centres unmarked) [Compound 220],10 to 40
2,OC(COc1ccc(C2CCCc3c2[nH]c2ccc(Cl)cc32)cc1)Cn1ccnn1 (centres unmarked) [Compound 221],10 to 40
3,OC(COc1ccc(C2CCCc3c2[nH]c2ccc(Cl)cc32)cc1)Cn1cncn1 (centres unmarked) [Compound 222],40 to 200
4,Oc1ccc(C2CCCc3c2[nH]c2ccc(Cl)cc32)cc1 (centres unmarked) [Compound 223],40 to 200
5,Clc1ccc2[nH]c3c(c2c1)CCCC3c1ccc(OCC2CO2)cc1 (centres unmarked) [Compound 224],< 10
6,COc1ccc(C2CCCCc3c2[nH]c2ccc(Cl)cc32)cc1 (centres unmarked) [Compound 229],10 to 40
7,Oc1ccc(C2CCCCc3c2[nH]c2ccc(Cl)cc32)cc1 (centres unmarked) [Compound 230],< 10
8,OC(COc1ccc(C2CCCCc3c2[nH]c2ccc(Cl)cc32)cc1)Cn1ccnc1 (centres unmarked) [Compound 231],< 10
9,COCCN(CCOC)CC(O)COc1ccc(C2CCCCc3c2[nH]c2ccc(Cl)cc32)cc1 (centres unmarked) [Compound 234],< 10
10,OC1CCc2c([nH]c3ccc(Br)cc23)C1c1ccccc1 (centres unmarked) [Compound 236],40 to 200
11,Cc1ccc(C2c3[nH]c4ccc(Br)cc4c3CCC2O)cc1 (centres unmarked) [Compound 237],200 to 1000
12,OC1CCc2c([nH]c3ccc(Br)cc23)C1c1ccc(Cl)cc1 (centres unmarked) [Compound 238],< 10
13,OC1CCc2c([nH]c3ccc(Br)cc23)C1c1ccc(F)cc1 (centres unmarked) [Compound 239],< 10
